Values of other authors in US20220370477A1, “Solid Oral Dosage Forms Of Dexamethasone” (Jubilant Generics Limited, priority 2021, published 2022).
“Also recorded” adds a separate entry of the source. Like-named read-outs stand apart in the source and are kept apart here.

- Solubility (in acetone): sparingly soluble
- Solubility (in dichloromethane): slightly soluble
- Solubility (in ethanol): sparingly soluble
- Solubility (in methanol): sparingly soluble
SMILES: C[C@@H]1C[C@H]2[C@@H]3CCC4=CC(=O)C=C[C@]4(C)[C@@]3(F)[C@@H](O)C[C@]2(C)[C@@]1(O)C(=O)CO [Dexamethasone, 9-fluoro-11β,17,21trihydroxy-16α-methylpregna-1,4-diene-3 ,20-dione]
- Solubility (in water): practically insoluble; also recorded: poorly water-soluble
